The source of these data is patent US20250002918A1, “COMPOSITIONS AND METHODS FOR TREATMENT OF MIC60 DEPLETED CANCERS AND METASTASIS” (The Wistar Institute of Anatomy and Biology, priority 2021, published 2025).

SMILES strings stand for the structures.

In test [1] the test system is PC3 cells stably transduced with pLKO or Mic60-directed shRNA (shMic60). Description: Small-molecule drug screening, cell viability (CellTiterGlo). Particulars: drug screen, 72-h incubation, based on IC50 values (FIG. 4A, 4B). The method, then: (§1) FIG. 4A-FIG. 4I show therapeutic vulnerability of GCN2/Akt signaling exposed by Mic60 depletion. (FIG. 4A and FIG. 4B) PC3 cells transduced with pLKO or shMic60 were analyzed in a high-throughput drug screening (FIG. 4A), and candidate compounds with differential tumor cell killing in shCtrl- or shMic60-transduced cultures (FIG. 4B) were analyzed based on IC50 values (nM). (FIG. 4C) PC3 cells transfected with siMic60 were analyzed for differential ISR gene expression by RNA-Seq. A representative experiment is shown. (FIG. 4D) PC3 cells transfected with siCtrl or siMic60 were analyzed by Western blotting. p, phosphorylated. (FIG. 4E) PC3 cells as in FIG. 4A and FIG. 4B were transfected with ATF4-mScarlet nuclear reporter gene and analyzed by flow cytometry in two independent experiments (Exp). The percentage of cells in gated regions is indicated. (FIG. 4F) Kaplan-Meier survival curves for differential expression of DDIT3 or ATF4 in Mic60-low GBM or pan-kidney cancer cohort comprising kidney chromophobe, kidney renal clear cell carcinoma, and kidney renal papillary cell carcinoma (KIPAN) in the Human Protein Atlas database. The number of patients per each condition and P values are indicated. (FIG. 4G) PC3 cells as in FIG. 4A and FIG. 4B were incubated with vehicle (Veh) or GCN2-IN-1 small-molecule inhibitor to GCN2 and analyzed for Annexin V/PI staining by multiparametric flow cytometry. The percentage of cells in each quadrant is indicated in a representative experiment (n=2). (FIG. 4H) PC3 cells were transfected with siCtrl or GCN2-directed siRNA (siGCN2) and analyzed by Western blotting. (FIG. 4I) PC3 cells were transfected with siCtrl or GCN2-directed siRNA (siGCN2) and analyzed for cell death by Trypan blue exclusion and light microscopy after 72 h. Mean±SD.
Cell viability screening against the MedChem Express anti-cancer library (1,820 compounds) was performed using CellTiterGlo (Promega). PC3 cells stably transduced with pLKO or Mic60-directed shRNA (shMic60) were maintained in complete media, trypsinized, and plated (500 cells/well) in 40 μL of complete medium the day before the experiment in white, clear-bottom 384-well plates. A total of 50 nL of test compound was added to each well using the Janus MDT Nanohead (Perkin-Elmer). Each compound was screened at a final concentration of 10, 1, 0.1, and 0.01 μM. After a 72-h incubation at 37° C. in the presence of 5% CO2, 20 μL of the CellTiterGlo reagent was added to each well. After 15 min, luminescence was measured using the Envision Multimode plate reader (PerkinElmer). The raw data were normalized to % inhibition, where 0% is the relative light units (RLU) in the presence of dimethylsulfoxide, and 100% is the RLU in the presence of 1 μM bortezomib. Estimated half maximal inhibitory concentration (IC50) values for each compound were determined using nonlinear regression fits on the data to a one-site binding model in XlFit (ID Business Solutions Ltd. [IDBS]). Because only 4 data points were used in this calculation, the top and bottom of the curve was fixed to 100% and 0%, respectively, with a constant slope value of 1.
(In ATP-based viability assays light output follows the ATP content of the culture.)

Test [2] has as its system PC3 cells transduced with pLKO or shMic60. Description: Tumor cell proliferation. The class given is cell-based. Particulars: for suppression of proliferation, Mic60-depleted vs control transfectants: PC3 cells.
Test [3] has the same test system. Description: Annexin V/PI staining by multiparametric flow cytometry. The class given is cell-based. Particulars: preferentially in Mic60-silenced PC3 cells compared to control cultures (FIG. 4G). The procedure: as §1, with “(FIG. 4F) Kaplan-Meier survival curves for differential expression of DDIT3 or ATF4 in Mic60-low GBM or pan-kidney cancer cohort comprising kidney chromophobe, kidney renal clear cell carcinoma, and kidney renal papillary cell carcinoma (KIPAN) in the Human Protein Atlas database. The number of patients per each condition and P values are indicated.” left out, “The percentage of cells in each quadrant is indicated in a representative experiment (n=2).” left out, “Mean±SD.” left out
A general note: Flow cytometry measures light scatter and fluorescence of single cells or particles in a stream.

The test system is the same in test [4]. Description: Caspase-dependent cell death. The class given is cell-based.
Test [5] has as its system Mic60-silenced cells. Description: Tumor cell invasion (Matrigel). The class given is cell-based. Particulars: Mic60-silenced cells reconstituted with the scavenger. The method, then: FIG. 3A-FIG. 3G show Mic60 regulation of tumor cell motility and metastasis. (FIG. 3A) PC3 cells transduced with pLKO or shMic60 were analyzed for circularity (Top; 1=perfect sphere) and surface area (Bottom). Each symbol corresponds to an individual determination. Min to max values are indicated (pLKO, n=36; shMic60, n=39). *** P<0.0001 to 0.0009. (FIG. 3B) PC3 cells as in FIG. 3A were analyzed by Western blotting. (FIG. 3C) PC3 cells transduced with pLKO or shMic60 were analyzed for single-cell motility in 2D contour plots by time-lapse video microscopy. Each tracing corresponds to the movements of an individual cell (pLKO, n=90; shMic60, n=94). The average speed of cell movements (velocity [Vel], μm/min) and distance traveled (Dis; μm) are indicated. Mean±SD (n=3). P<0.0001. […] (FIG. 3D) PC3 cells as in FIG. 3A or WT or Mic60 KO PC3 cells were analyzed for invasion across Matrigel-coated inserts and quantified. […] (FIG. 3F) PC3 cells as in FIG. 3A were injected into the spleen of NSG mice, and liver samples harvested after 11 d were stained with hematoxylin/eosin, and the number (FIG. 3F, Top) and surface area (FIG. 3F, Bottom) of metastatic foci were quantified by morphometry. […] (FIG. 3G) Matched patient samples of LUAD representative of normal parenchyma (N), primary tumor (P), or metastasis (M) were analyzed for differential Mic60 expression by RT-PCR. […]

In test [6] the test system is Mic60-silenced tumor cells. Description: Focal adhesion (FA) dynamics after Mic60 silencing. The class given is cell-based.
The subject of test [7] is PC3 cells. Description: Single-cell motility by time-lapse videomicroscopy. Particulars: Mic60-silenced PC3 cells vs control transfectants. The class given is cell-based. The procedure: (§2) Cells ([…]) were seeded in 4-well Ph+ Chambers (Ibidi) in complete growth medium and allowed to attach for 16 h at 37° C. Time-lapse videomicroscopy was performed over 10 h, with a time-lapse interval of 10 min. Stacks were imported into Image J Fiji software for analysis, and at least 10 to 20 cells per condition were tracked using the Manual Tracking plugin for Image J Fiji. Tracking data were exported into the Chemotaxis and Migration Tool v. 2.0 (Ibidi) for graphing and calculation of the mean and SD of speed and accumulated distance of movement. For directional cell migration, wounds were made in monolayers of PC3 cells using a 10-μL pipette tip. Cell debris were washed off, and cultures were maintained in complete growth medium containing 10% fetal bovine serum at 37° C. and 5% CO2. Time-lapse imaging of migrating cells was performed using a TE300 inverted microscope (Nikon) equipped with an incubator set at 37° C., 5% CO2, and 95% relative humidity. Each image was acquired using a 10× objective of the same fields at each 10-min interval for a total of 24 h.

Test [8] concerns LN229 cells. Description: Single-cell motility by time-lapse videomicroscopy. The class given is cell-based. Particulars: Mic60-silenced LN229 cells vs control transfectants. The method, then: as §2

As for `CS(=O)(=O)N1CCC(NC(=O)c2[nH]ncc2NC(=O)c2c(Cl)cccc2Cl)CC1` [NVP-LCQ195], the “differential tumor cell killing, Mic60-silenced vs control cultures” value (shortened to “differential tumor cell killing”) in test [1] is reported as “preferential killing against Mic60-low PC3 cells”.

For `NC1(c2ccc(-c3nc4ccn5c(=O)[nH]nc5c4cc3-c3ccccc3)cc2)CCC1` [MK2206], the “suppression of proliferation, Mic60-depleted vs control transfectants” value in test [2] is on record as “suppressed proliferation selectively of Mic60-depleted PC3 cells”. As for `COc1cc(/C=C/C(=O)CC(=O)/C=C/c2ccc(O)c(OC)c2)ccc1O` [curcumin], the “differential tumor cell killing” value in test [1] was “preferential killing against Mic60-low PC3 cells”. On the same count and under the same terms, the same measure for `COc1cc([C@@H]2c3cc4c(cc3[C@H](O)[C@H]3COC(=O)[C@H]23)OCO4)cc(OC)c1OC` [podophyllotoxin]: “preferential killing against Mic60-low PC3 cells”.

Take `c1nn(C2CCOCC2)cc1Nc1ncc2nnn(-c3ccc4cn[nH]c4c3)c2n1` [GCN2-IN-1]: in test [1], the “differential tumor cell killing” value is “killed Mic60-silenced PC3 cells more efficiently than control cultures”. Moreover, in test [3], the “Annexin V-associated apoptosis” value is “activated Annexin V-associated apoptosis”. Also, the “proliferation (cell number) with GCN2 inhibitor” value in test [2] (pLKO control PC3 cells) is on record as 3.3×10^5±0.62×10^5 cells; in test [2] (shMic60 PC3 cells, P=0.009 vs pLKO), 1.95×10^5±0.4×10^5 cells. The caspase-dependent cell death in test [4] (pLKO control PC3 cells) amounted to 8.4±6.3%; in test [4] (shMic60 PC3 cells, P=0.04 vs pLKO), 23.1±5.6%. `CC1(C)CC(NC(=O)C[P+](c2ccccc2)(c2ccccc2)c2ccccc2)CC(C)(C)N1[O]` [MitoTempo]: the tumor cell invasion entry in test [5] was “normalized tumor cell invasion to control levels”. Regarding `C/C(=N\NC(=S)N1CCC1)c1ccccn1` [NSC319726], the “differential tumor cell killing” value in test [1] is “preferential killing against Mic60-low PC3 cells”.

As to `CN(c1ncccc1CNc1nc(Nc2ccc3c(c2)CC(=O)N3)ncc1C(F)(F)F)S(C)(=O)=O` [FAKi], the FA dynamics entry in test [6] is “normalized FA dynamics”. The single-cell motility result in test [7] and in test [8] was “restored the single-cell motility of PC3 or LN229 cells to levels of control transfectants” in each case. With `CC1(C)CCC(c2ccc(Cl)cc2)=C(CN2CCN(c3ccc(C(=O)NS(=O)(=O)c4ccc(N[C@H](CCN5CCOCC5)CSc5ccccc5)c(S(=O)(=O)C(F)(F)F)c4)cc3)CC2)C1` [Navitoclax], in test [1], the “differential tumor cell killing” value is listed as “preferential killing against Mic60-low PC3 cells”. The same measure, in the same setting: the same measure for `COc1cc2c(cc1OC)CN(CCc1ccc(NC(=O)c3cc(OC)c(OC)cc3NC(=O)c3cnc4ccccc4c3)cc1)CC2` [Tariquidar]: “preferential killing against Mic60-low PC3 cells”. As for `O=c1[nH]c2ccccc2n1C1CCN(Cc2ccc(-c3nc4cc5[nH]cnc5cc4nc3-c3ccccc3)cc2)CC1` [Akt inhibitor VIII], the “differential tumor cell killing” value in test [1] is reported as “killed Mic60-silenced PC3 cells more efficiently than control cultures”. Moreover, in test [2], the “suppression of proliferation, Mic60-depleted vs control transfectants” value is “suppressed proliferation selectively of Mic60-depleted PC3 cells”. For `C/C(=N\NC(=O)c1cccc(S(=O)(=O)N2CCOCC2)c1)c1cc(Cl)ccc1O` [SP2509], in test [1], the “differential tumor cell killing” value is reported as “preferential killing against Mic60-low PC3 cells”.
